Test systems include EKVX NSCLC; DMS 273 small cell lung; MOLT-4 leukemia; TK-10 renal; M19-MEL melanoma; SK-OV-3 ovarian; A498 renal; MALME-3M melanoma; MCF7 breast; DU-145 prostate.
Holding throughout (experiment): NCI-60 cell line screen, 48 h

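Cultured in 96-well plates, cells were exposed to test compound for 48 hours across five concentrations. At the GI50, growth is halved. TGI is the concentration that stops growth completely.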

`CC(=O)Nc1ccc(C2=N/C(=C\c3ccc(Cl)cc3)C(=O)O2)cc1`: the TGI was greater than 100 µM in the assay on EKVX NSCLC; greater than 100 µM with DMS 273 small cell lung; 64.1 µM with MOLT-4 leukemia; greater than 100 µM with TK-10 renal; 57.5 µM in the assay with M19-MEL melanoma; greater than 100 µM in the assay on SK-OV-3 ovarian. The TGI in the assay with A498 renal and in the assay with MALME-3M melanoma was greater than 100 µM throughout.

As for `CC1=C(C(=O)Nc2ccc(C)cc2)C(c2cccc([N+](=O)[O-])c2)C(C(=O)Nc2ccc(C)cc2)=C(C)N1`, the TGI in the assay with EKVX NSCLC is 86.1 µM; in the assay with DMS 273 small cell lung it was greater than 100 µM; in the assay with MOLT-4 leukemia it was 38.5 µM; in the assay on TK-10 renal, greater than 100 µM; with M19-MEL melanoma, 63.4 µM; with SK-OV-3 ovarian, greater than 100 µM. For the same compound, the TGI in the assay on A498 renal was determined as 55.3 µM; with MALME-3M melanoma, 77.2 µM.

On to `N#Cc1cccc(C2C(=O)c3ccc(C(=O)c4ccc5c(c4)C(=O)N(c4ccc(Oc6ccc(N7C(=O)c8ccc(C(=O)c9ccc%10c(c9)C(=O)N(c9cccc(C#N)c9)C%10=O)cc8C7=O)cc6)cc4)C5=O)cc3C2=O)c1` (stereo not drawn), for which the TGI in the assay on EKVX NSCLC, in the assay on DMS 273 small cell lung, in the assay with MOLT-4 leukemia, in the assay with TK-10 renal, in the assay with M19-MEL melanoma and with MALME-3M melanoma was greater than 100 µM in each case.

As for `Cc1ccccc1-n1c(CCl)nc2ccc(Br)cc2c1=O`, the TGI is 35 µM in the assay on EKVX NSCLC; greater than 100 µM in the assay on DMS 273 small cell lung; 73.5 µM with MOLT-4 leukemia; 70.1 µM in the assay with TK-10 renal; 19.9 µM in the assay with M19-MEL melanoma; greater than 100 µM with SK-OV-3 ovarian. In addition, the TGI is 60.8 µM in the assay on A498 renal and 32.9 µM in the assay on MALME-3M melanoma.

Turning to `Clc1ccccc1C1SCc2nc3ccccc3n21` (stereo not drawn), the TGI was 81.9 µM with EKVX NSCLC; greater than 100 µM in the assay on MOLT-4 leukemia; 71.6 µM in the assay on TK-10 renal; greater than 100 µM in the assay on M19-MEL melanoma; 82.7 µM with SK-OV-3 ovarian; 53.4 µM with MALME-3M melanoma.

For the compound `COC(=O)C1=CC(=O)[C@@H]2CCCC[C@H]12`, the TGI with DMS 273 small cell lung, in the assay on MOLT-4 leukemia, with TK-10 renal, with M19-MEL melanoma, with SK-OV-3 ovarian and in the assay with MALME-3M melanoma was greater than 100 µM each time.

Consider `O=C(Cc1nc2ccccc2o1)C(=O)Nc1ccc(Cl)cc1Cl`, for which the TGI with EKVX NSCLC, in the assay with DMS 273 small cell lung, in the assay on M19-MEL melanoma, in the assay with SK-OV-3 ovarian, in the assay with A498 renal and in the assay on MALME-3M melanoma was greater than 100 µM throughout.

As for `CCc1ccccc1NC(=O)C(=O)C1C(=O)N(c2ccccc2)N=C1N` (stereo not drawn), the TGI in the assay on EKVX NSCLC, with DMS 273 small cell lung, in the assay on MOLT-4 leukemia, in the assay with TK-10 renal, in the assay with M19-MEL melanoma and with A498 renal was greater than 100 µM in each case. The same compound yielded a TGI in the assay with MALME-3M melanoma greater than 100 µM.

In the case of `[CH3][Hg]/[N]=C(/N)NC#N`, the GI50 in the assay with DMS 273 small cell lung is 13.5 µM; in the assay with MOLT-4 leukemia it was 3.73 µM; in the assay on TK-10 renal, 3.35 µM; in the assay on M19-MEL melanoma, 12.1 µM; in the assay with SK-OV-3 ovarian it was 16.9 µM; with A498 renal it was 17.7 µM. For the same compound, the GI50 in the assay on MALME-3M melanoma was 2.34 µM. Also, the TGI in the assay on DMS 273 small cell lung is 27.5 µM; in the assay with MOLT-4 leukemia, greater than 100 µM; with TK-10 renal it was 14.8 µM; in the assay with M19-MEL melanoma, 25.2 µM; in the assay with SK-OV-3 ovarian, 30.8 µM; in the assay on A498 renal, 31.7 µM. Further, the TGI with MALME-3M melanoma was found to be 4.94 µM.

On to `CN1C2(c3ccccc3)C(C(=O)c3ccccc3)=C(C(=O)c3ccccc3)C1(c1ccccc1)c1c(-c3ccccc3)sc(-c3ccccc3)c12`, for which the TGI in the assay on EKVX NSCLC, in the assay on DMS 273 small cell lung, with TK-10 renal, in the assay on M19-MEL melanoma, with SK-OV-3 ovarian and in the assay on A498 renal was greater than 100 µM throughout. The TGI in the assay with MALME-3M melanoma is greater than 100 µM.

Regarding `CC1=CC[C@@H](C(C)(C)O)C[C@@H]1O`, the TGI with EKVX NSCLC, in the assay with MOLT-4 leukemia, in the assay with TK-10 renal, in the assay with M19-MEL melanoma, in the assay with SK-OV-3 ovarian and with A498 renal was greater than 5000 µM throughout. The compound further displayed a TGI in the assay with MALME-3M melanoma greater than 5000 µM.

`Fc1ccc(Nc2nc3nonc3nc2Nc2ccc(I)cc2)cc1`: the GI50 with EKVX NSCLC was 0.273 µM; in the assay with MOLT-4 leukemia it was 0.219 µM; with MCF7 breast, 0.277 µM; with TK-10 renal, 0.315 µM; in the assay with DU-145 prostate, 0.395 µM; with SK-OV-3 ovarian, 0.269 µM. Moreover, the GI50 was 0.227 µM in the assay with A498 renal and 0.0939 µM in the assay with MALME-3M melanoma. Also, the TGI was 10.1 µM with EKVX NSCLC; 0.75 µM with MOLT-4 leukemia; 4.08 µM in the assay with MCF7 breast; 2.18 µM in the assay with TK-10 renal; 16.8 µM in the assay on DU-145 prostate; 0.962 µM with SK-OV-3 ovarian. The TGI with A498 renal amounted to 0.708 µM; in the assay with MALME-3M melanoma, 0.511 µM.

`N#CCCN(c1ccc(C=O)cc1)S(=O)(=O)c1ccccc1`: the TGI with EKVX NSCLC, in the assay with DMS 273 small cell lung, in the assay with MOLT-4 leukemia, in the assay on M19-MEL melanoma, in the assay with SK-OV-3 ovarian and in the assay with A498 renal was greater than 100 µM in each case. In the assay on MALME-3M melanoma, this compound displayed a TGI greater than 100 µM.

Consider `COC(=O)[C@]12CC[C@@H](C)[C@H](C)[C@@H]1C1=CC[C@@H]3[C@@](C)(CC#N)C4=C(C[C@@]3(C)[C@]1(C)CC2)OC[C@]4(C)C=O`, for which the GI50 in the assay with EKVX NSCLC was 4.32 µM; with MOLT-4 leukemia, 2.1 µM; in the assay on MCF7 breast, 3.05 µM; in the assay on TK-10 renal it was 8.07 µM; in the assay with DU-145 prostate, 4.78 µM; in the assay on SK-OV-3 ovarian, 4.92 µM. The GI50 in the assay on A498 renal was 14.7 µM; in the assay with MALME-3M melanoma it was 4.76 µM. The TGI in the assay with EKVX NSCLC is 48.7 µM; in the assay with MOLT-4 leukemia it was 6.89 µM; with MCF7 breast, 11.4 µM; in the assay on TK-10 renal, greater than 100 µM; with DU-145 prostate it was greater than 100 µM; in the assay with SK-OV-3 ovarian, 62.6 µM. Moreover, the values for the TGI with A498 renal and with MALME-3M melanoma were 28.7 µM and 27.8 µM, respectively.

Take `CCCCOC(=O)c1c(C)[nH]c(/C=C2\N=C(c3ccc[nH]3)C=C2OC)c1C`: the GI50 in the assay on EKVX NSCLC was 0.46 µM; in the assay on MOLT-4 leukemia, 0.138 µM; in the assay on MCF7 breast, 0.162 µM; with TK-10 renal, 0.185 µM; with DU-145 prostate, 0.274 µM; with SK-OV-3 ovarian it was 1.45 µM. The GI50 in the assay with A498 renal is 0.342 µM; in the assay on MALME-3M melanoma, 1.16 µM. The TGI with EKVX NSCLC is 4.88 µM; in the assay with MOLT-4 leukemia, 9.85 µM; with MCF7 breast it was 2.65 µM; with TK-10 renal it was 5.07 µM; with DU-145 prostate it was 6.37 µM; in the assay on SK-OV-3 ovarian, 14.4 µM. Further, the TGI was 2.16 µM in the assay on A498 renal and 2.82 µM in the assay on MALME-3M melanoma.

The values are drawn from PubChem BioAssay (NCI).
